One experiment deals with Bcl6 (Homo sapiens, UniProt P41182). The following applies: compared with BI-3802; cited from earlier work.
For experiment [1], the system named is human CD4+ effector T cells. Nature of the experiment: GZMB expression in human CD4+ effector T cells (PBMCs) treated with Bcl6 targeting drugs (flow cytometry). Type of experiment: cell-based. The following applies: 100 nM, 72 h, low dose αCD3 0.5 ug/ml. The method, then: (§1) Healthy donor human PBMCs were labelled with CellTrace Violet (ThermoFisher) according to manufacturer's protocol and cultured in RPMI media supplemented with 10% fetal bovine serum, 100 U/mL penicillin, 100 ug/ml streptomycin and 2 mM L-glutamine for 72 h. Cells were either left unstimulated or stimulated with αCD3 (clone OKT3) at a final concentration of 0.5 ug/ml. Cells were additionally treated with Bcl6 targeting drugs, or with a control compound (BI-5273), at a final concentration of 100 nM. Cells were stained for flow cytometry using a fixable viability dye (eBiosciences) and with directly conjugated antibodies against human CD3, CD4, CD8, FoxP3, CD25, GzmB, and Bcl6 using the FoxP3 Transcription factor staining Buffer set (ThermoFisher) according to the manufacturer's instructions.

The next experiment concerns human CD8+ T cells. Nature of the experiment: GZMB and BCL6 expression in human CD8+ T cells (PBMCs) treated with Bcl6 targeting drugs (flow cytometry). Type of experiment: cell-based. The following applies: 100 nM, 72 h, low dose αCD3 0.5 ug/ml; compared to control compound BI-5273. As to the method: as §1
(In general: In flow cytometry, cells or beads pass a laser one at a time.)

The test system of another experiment is CD4+ effector T cells. Kind of experiment: GZMB expression in mouse CD4+ effector T cells treated with Bcl6 degrader (flow cytometry). Type of experiment: cell-based. To be noted: 10 nM, 72 h, low dose αCD3+αCD28 0.1 ug/ml. As to the method: Spleens and lymph nodes were taken from C57BL/6J mice, and processed through a 70 μm mesh using PBS, followed by red blood cell lysis using Red Blood cell lysis buffer (Sigma) according to the manufacturer's protocol. Lymphocytes were labelled with CellTrace Violet (ThermoFisher) according to manufacturer's protocol and cultured in RPMI media supplemented with 10% fetal bovine serum, 100 U/mL penicillin, 100 ug/ml streptomycin and 2 mM L-glutamine for 72 h. Cells were either left unstimulated or stimulated with αCD3 (clone 2C11, BioXcell) and αCD28 (clone 37.51, BioXcell) at 0.1 ug/ml. Cells were additionally treated with a Bcl6 degrader (BI-3802) or with a control compound (BI-5273), at a final concentration of 10 nM. […] Cells were stained for flow cytometry using a fixable viability dye (eBiosciences) and with directly conjugated antibodies against CD3, CD4, CD8, FoxP3, CD25, GzmB, PD-1 and Bcl6 using the FoxP3 Transcription factor staining Buffer set (ThermoFisher) according to the manufacturer's instructions.

The subject of another experiment is human naive CD4+ T cells. Nature of the experiment: GzmB expression in aCD3/aCD28-stimulated human naive CD4+ T cells. Type of experiment: cell-based. To be noted: blockade of IL-2R signalling with anti-human CD25. The method, then: FACS-purified human CD4^+ T cells were cultured in RPMI complete medium with irradiated autologous feeders cells in 1:1 ratio for 96 h, stimulated with aCD3 (OKT3) and aCD28 (9.3; BioXcell). To some wells anti-CD25 antibody (Basiliximab; Novartis) was added 48 hours post aCD3/CD28 stimulation.

Experiment [2] has as its system CD4+ Trp1 and OT-II T cells. Nature of the experiment: GzmB upregulation in CD4+ Trp1 and OT-II TCR Tg T cells stimulated in vitro with antigen and cytokines. The class given is cell-based, mouse. The following applies: low antigen concentration (0.01 μM OVA peptide), comparison of CGAMMA chain cytokines. The method, then: Purified CD4+ T cells (CD4 T cells beads, Miltenyi or CD4 Dyna Beads, Invitrogen) were cultured in RPMI complete medium (as above) together with DC and irradiated feeder cells (40 Gy) in 2:1:1 ratio for 72 or 96 h. Polyclonal CD4+ T cells were stimulated with anti-CD3 (2C11) and anti-CD28 (37.51) (BioXcell); OT-II cells with OVA peptide (Pepscan) and Trp-1 cells with Trp-1 peptide (Pepscan) at concentration indicated in figure legend. Mouse CD4 T cells were cultured with aCD25 (PC61) and aIL-2 (JES6-1A12, BioXcell).
We therefore evaluated the potential contribution of CGAMMA receptor cytokines to the upregulation of GzmB in tumour-reactive CD4^+ T cells.

[3] abbreviates: compared to control compound BI-5273.
[4] abbreviates: relative to control compound BI-5273.

In the case of `C[C@@H]1C[C@H](C)CN(c2ncc(Cl)c(Nc3ccc4c(c3)cc(OC(C)(C)C(=O)O)c(=O)n4C)n2)C1` [BI-5273], at Bcl6, the Bcl6 inhibitor activity result is “significantly reduced Bcl6 inhibitor activity”.
Consider `C[C@@H]1CN(c2ncc(Cl)c(Nc3ccc4c(c3)n(CCC(C)(C)O)c(=O)n4C)n2)C[C@H](C)C1(F)F` [CCT369260, 5-((5-chloro-2-((3R,5S)-4,4-difluoro-3,5-dimethylpiperidin-1-yl)pyrimidin-4-yl)amino)-3-(3-hydroxy-3-methylbutyl)-1-methyl-1,3-dihydro-2H-benzo[d]imidazol-2-one], for which, in experiment [1] (setting [3]), the “Mean fluorescence intensity (MFI) of GZMB in human CD4+ effector T cells” value is listed as “increased GZMB expression”. For the same molecule, in experiment [1] (setting [4]), the “Percentage of human CD4+ effector T cells that express GZMB” value was “significantly greater percentage”. Further, in the experiment on human CD8+ T cells, the “Percentage of human CD8+ T cells that express BCL6” value is “significantly lower percentage” and the “Percentage of human CD8+ T cells that express GZMB” value is on record as “A decrease, although not statistically significant”.
Take `CNC(=O)COc1cc2cc(Nc3nc(N4C[C@H](C)C[C@H](C)C4)ncc3Cl)ccc2n(C)c1=O` [BI-3802]: the “Mean fluorescence intensity of GZMB in CD4+ effector T cells” value in the experiment with CD4+ effector T cells (setting [3]) is “increased GZMB expression”. Also, the “Percentage of CD4+ effector T cells that express GZMB” value in the experiment with CD4+ effector T cells (setting [4]) is reported as “significantly greater percentage”.
In the case of Basiliximab, the GzmB expression entry in the experiment with human naive CD4+ T cells was “significantly reduced GzmB expression to levels below those of the untreated control sample”.

B1: IL-7: cytokine (Peprotech) added to T cell cultures (protein, UniProt P13232 26-177, looked up)
Interleukin-7: DCDIEGKDGKQYESVLMVSIDQLLDSMKEIGSNCLNNEFNFFKRHICDANKEGMFLFRAARKLRQFLKMNSTGDFDLHLLKVSEGTTILLNCTGQVKGRKPAALGEAQPTKSLEENKSLKEQKKLNDLCFLKRLLQEIKTCWNKILMGTKEH
In the case of B1, the “Induction of GzmB” value in experiment [2] is “at a much lower level”.

Values taken from US20220241333A1, “MODULATION OF T CELL CYTOTOXICITY AND RELATED THERAPY” (Cancer Research Technology Limited, priority 2019, published 2022).
